Test results from paper PMC5253357, “Racemic Salsolinol and its Enantiomers Act as Agonists of the μ-Opioid Receptor by Activating the Gi Protein-Adenylate Cyclase Pathway” (Frontiers in Behavioral Neuroscience, 2017).
“Also recorded” adds a separate entry of the source.

What was measured:
[1] = target: T1, human μ-opioid receptor (Homo sapiens, UniProt P35372); test: cell-based; settings: CHO-K1 cells, forskolin 20 μM, 30 min incubation; read-out: EC50, activation of μ-opioid receptor (reduction of intracellular cAMP)
T1 construct: host or cells: CHO-K1
Excerpt: The intrinsic activity of the ligands was studied using commercially cell-based assays, composed by recombinant CHO-K1 cells that overexpress only the human μ-opioid receptor, detecting the levels of second messengers that reflect the activation of this receptor. To assess the activation of the μ-opioid receptor through the recruitment of G protein signaling pathway, we used the cyclic adenosine monophosphate (cAMP) Hunter® eXpress G protein-coupled receptor (GPCR) Assay (DiscoverX, Freemont, CA, USA) following the manufacturer instructions. In this system, the endogenous cAMP competes with an exogenous cAMP coupled to a truncated β-galactosidase fragment (provided by the assay) for binding to a cAMP antibody. Only the unbound exogenous cAMP-β-galactosidase fragment binds to a complementary β-galactosidase fragment to form the active enzyme. […] Control cells were incubated only with forskolin. The resulting luminescence was measured with a microplate reader Synergy HT (Biotek, Winooski, VT, USA) or a microplate reader SpectraMax M3 (Molecular Devices, Sunnyvale, CA, USA).
(§1) The fitting of the data to the correlation was assessed by its corresponding coefficient of determination (R^2), using GraphPad Prism (San Diego, CA, USA).

[2] = target: μ-opioid receptor; set-up: method as in Lucchi et al., 1982; settings: rat striatum; ref Lucchi et al., 1982; read-out: IC50, displacement of [met]-enkephalin; cited from earlier work
[3] = target: T1, human μ-opioid receptor; assay type: cell-based; settings: all tested concentrations; listed as racemic SAL
Excerpt: To assess the activation of the μ-opioid receptor through the recruitment of the β-arrestin signaling pathway, we used a PathHunter® eXpress β-Arrestin GPCR chemiluminescent assay (DiscoverX) following the manufacturer instructions. In this system, the human μ-opioid receptor is fused to a small fragment of β-galactosidase (PK) and co-expressed in cells expressing a fusion protein of β-arrestin and the complementary fragment of β-galactosidase (EA). Activation of the μ-opioid receptor stimulates binding of β-arrestin to the PK-tagged receptor allowing the complementation of the two enzyme fragments of β-galactosidase. This action leads to an activation of the enzyme that can be measured using a chemiluminescent reagent resulting in luminescence, which is proportional to the recruitment of β-arrestin. […] The resulting luminescence was determined with a microplate reader Synergy HT (Biotek).
as §1

T1 sequence (P35372 whole entry): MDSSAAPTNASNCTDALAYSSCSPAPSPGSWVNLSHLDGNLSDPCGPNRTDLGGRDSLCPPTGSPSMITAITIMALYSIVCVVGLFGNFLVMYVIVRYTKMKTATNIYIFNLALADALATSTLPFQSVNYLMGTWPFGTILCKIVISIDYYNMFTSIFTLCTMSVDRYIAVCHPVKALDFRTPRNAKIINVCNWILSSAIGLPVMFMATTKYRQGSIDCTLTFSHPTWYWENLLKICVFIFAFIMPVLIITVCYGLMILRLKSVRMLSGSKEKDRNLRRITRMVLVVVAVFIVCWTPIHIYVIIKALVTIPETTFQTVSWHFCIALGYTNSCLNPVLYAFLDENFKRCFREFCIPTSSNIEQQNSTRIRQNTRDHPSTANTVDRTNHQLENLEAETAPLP

Compound	EC50 [1] [µM]	IC50 [2] [µM]	Activation of β-arrestin signaling pathway (in words) [3]
C[C@H]1NCCc2cc(O)c(O)cc21 [(R)-SAL]	600	–	–
C[C@@H]1NCCc2cc(O)c(O)cc21 [(S)-SAL]	9	–	–
CC1NCCc2cc(O)c(O)cc21 (racemic) [(R/S)-SAL, 1-methyl-1,2,3,4-tetrahydro-6,7-dihydroxy-isoquinoline]	20	10	did not promote the recruitment of β-arrestin; also recorded: unable to activate the β-arrestin signaling pathway; also recorded: does not induce the recruitment of β-arrestin
